Our source for the GI50 values is patent publication US20260062422A1 (Halda Therapeutics OpCo, Inc., priority 2022, published 2026).

For one experiment, the system named is VCaP cells. Kind of experiment: Cellular growth inhibition assay for VCaP cells, CellTiter-Glo. Type of experiment: cell-based, human. The note with it: 72 hours treatment, CellTiter-Glo 2.0. The essentials:
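GI50 values come from four-parameter curve fits of luminescence data normalized to a zero baseline. Compound, in medium with 0.5% DMSO, was added one day after plating and left for 72 h before CellTiter-Glo 2.0 addition.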
On the technique in general: ATP-based viability assays read luminescence as a measure of living cells.

A further experiment deals with T47D cells. Briefly: Cellular growth inhibition assay for T47D cells, CellTiter-Glo. Type of experiment: cell-based, human. To be noted: 72 hours treatment, CellTiter-Glo 2.0 cell viability. The essentials: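 Luminescence from CellTiter-Glo 2.0 after 72 h of compound exposure gives the viability signal. Cells grew in insulin-supplemented (0.2 units/mL) DMEM with 10% FBS and were treated one day after seeding at 0.5% DMSO. GI50 values come from four-parameter nonlinear regression.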

Experiment [1] deals with T-Rex 293 cell line SC3 cells having increased expression of androgen receptor protein due to exposure to doxycycline. Kind of experiment: Cellular growth inhibition, T-Rex 293 SC3 cells with doxycycline (androgen receptor induced), CellTiter-Glo. Type of experiment: cell-based. To be noted: T-Rex 293 SC3 cells with 10 ng/mL doxycycline (increased androgen receptor expression). The essentials:
(§1)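 Luminescence read-out (CellTiter-Glo 2.0) after 72 h compound exposure; GI50 by four-parameter nonlinear regression, baseline set at zero luminescence. SC3 cells, a doxycycline-inducible wild-type AR clone of T-Rex 293, were cultured ±10 ng/mL doxycycline in charcoal-dextran FBS medium.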

The test system of experiment [2] is T-Rex 293 cell line SC3 cells lacking increased expression of androgen receptor protein. Briefly: Cellular growth inhibition, T-Rex 293 SC3 cells without doxycycline, CellTiter-Glo. Type of experiment: cell-based. The note with it: T-Rex 293 SC3 cells not exposed to doxycycline, CellTiter-Glo 2.0. The essentials: as §1

In the case of `Cc1sc2c(c1C)C(c1ccc(OC3CC4(CCN(c5ncc(C(=O)N[C@H]6C(C)(C)[C@H](Oc7ccc(C#N)c(Cl)c7)C6(C)C)cn5)CC4)C3)cc1)=N/C(=C/c1ncco1)c1nnc(C)n1-2` [Compound I-230, N-[3-(3-chloro-4-cyano-phenoxy)-2,2,4,4-tetramethyl-cyclobutyl]-2-[2-[4-[(9E)-4,5,13-trimethyl-9-(oxazol-2-ylmethylene)-3-thia-1,8,11,12-tetrazatricyclo[8.3.0.02,6]trideca-2(6),4,7,10,12-pentaen-7-yl]phenoxy]-7-azaspiro[3.5]nonan-7-yl]pyrimidine-5-carboxamide], the GI50 – broadly, the concentration giving 50% growth inhibition – in the experiment with VCaP cells (Homo sapiens, VCaP, 72 h) was less than 500 nM; in the experiment with T47D cells (Homo sapiens, T47D, 72 h), greater than 3000 nM; in experiment [1] (72 h) it was less than 500 nM; in experiment [2] (72 h), greater than 3000 nM.
In the case of `CNc1ccc2c(n1)C(c1ccc(OC3CC4(CCCN(c5ncc(C(=O)N[C@H]6C(C)(C)[C@H](Oc7ccc(C#N)c(Cl)c7)C6(C)C)cn5)C4)C3)cc1)=NCc1onc(C)c1-2` [Compound I-231, N-[3-(3-chloro-4-cyano-phenoxy)-2,2,4,4-tetramethyl-cyclobutyl]-2-[2-[4-[3-methyl-12-(methylamino)-5-oxa-4,8,11-triazatricyclo [8.4.0.02,6]tetradeca-1(10),2(6),3,8,11,13-hexaen-9-yl]phenoxy]-6-azaspiro[3.5]nonan-6-yl]pyrimidine-5-carboxamide], the GI50 with VCaP cells (Homo sapiens, VCaP, 72 h) is greater than 3000 nM; in the experiment with T47D cells (Homo sapiens, T47D, 72 h), greater than 3000 nM; in experiment [1] (72 h), less than 500 nM; in experiment [2] (72 h) it was greater than 3000 nM.
On to `CNc1ccc2c(n1)C(c1ccc(OC3CC4(CCN(c5ncc(C(=O)N[C@H]6C(C)(C)[C@H](Oc7ccc(C#N)c(Cl)c7)C6(C)C)cn5)CC4)C3)cc1)=NCc1onc(C)c1-2` [Compound I-232], for which the GI50 with VCaP cells (Homo sapiens, VCaP, 72 h) is less than 500 nM; with T47D cells (Homo sapiens, T47D, 72 h), less than 500 nM; in experiment [1] (72 h), less than 500 nM; in experiment [2] (72 h) it was greater than 3000 nM.
Take `Cc1sc2c(c1C)C(c1ccc(OC[C@H]3C[C@]4(CCCN(c5ncc(C(=O)N[C@H]6C(C)(C)[C@H](Oc7ccc(C#N)c(Cl)c7)C6(C)C)cn5)C4)C3)cc1)=N[C@@H](Cc1ncco1)c1nnc(C)n1-2` [Compound I-233]: the GI50 was 500 to 1500 nM with VCaP cells (Homo sapiens, VCaP, 72 h); less than 500 nM with T47D cells (Homo sapiens, T47D, 72 h); less than 500 nM in experiment [1] (72 h); 1500 to 3000 nM in experiment [2] (72 h).
Consider `Cc1sc2c(c1C)C(c1ccc(OC[C@H]3C[C@@]4(CCCN(c5ncc(C(=O)N[C@H]6C(C)(C)[C@H](Oc7ccc(C#N)c(Cl)c7)C6(C)C)cn5)C4)C3)cc1)=N[C@@H](Cc1ncco1)c1nnc(C)n1-2` [Compound I-234], for which the GI50 is less than 500 nM in the experiment on VCaP cells (Homo sapiens, VCaP, 72 h); less than 500 nM with T47D cells (Homo sapiens, T47D, 72 h); less than 500 nM in experiment [1] (72 h); 500 to 1500 nM in experiment [2] (72 h).
With `Cc1sc2c(c1C)C(c1ccc(N3CCN(C4CN(c5ncc(C(=O)NC6C(C)(C)C(Oc7ccc(C#N)c(Cl)c7)C6(C)C)cn5)C4)CC3)cc1)=N[C@@H](CC(=O)OC(C)(C)C)c1nnc(C)n1-2` (stereo partly drawn) [Compound I-236, tert-butyl 2-[(9S)-7-[4-[4-[1-[5-[[3-(3-chloro-4-cyano-phenoxy)-2,2,4,4-tetramethyl-cyclobutyl]carbamoyl]pyrimidin-2-yl]azetidin-3-yl]piperazin-1-yl]phenyl]-4,5,13-trimethyl-3-thia-1,8,11,12-tetrazatricyclo[8.3.0.02,6]trideca-2(6),4,7,10,12-pentaen-9-yl]acetate], the GI50 is less than 500 nM with VCaP cells (Homo sapiens, VCaP, 72 h); less than 500 nM in the experiment on T47D cells (Homo sapiens, T47D, 72 h); less than 500 nM in experiment [1] (72 h); 500 to 1500 nM in experiment [2] (72 h).
As for `Cc1sc2c(c1C)C(c1ccc(C3CC3C3CC4(CCN(c5ncc(C(=O)N[C@H]6C(C)(C)[C@H](Oc7ccc(C#N)c(Cl)c7)C6(C)C)cn5)CC4)C3)cc1)=N[C@@H](Cc1ncco1)c1nnc(C)n1-2` (some centres unmarked) [Compound I-238], the GI50 was less than 500 nM with VCaP cells, less than 500 nM in the experiment on T47D cells, less than 500 nM in experiment [1] (72 hours) and greater than 3000 nM in experiment [2] (72 hours).
As to `Cc1sc2c(c1C)C(c1ccc(CC[C@H]3C[C@]4(CCCN(c5ncc(C(=O)N[C@H]6C(C)(C)[C@H](Oc7ccc(C#N)c(Cl)c7)C6(C)C)cn5)C4)C3)cc1)=N[C@@H](Cc1ncco1)c1nnc(C)n1-2` [Compound I-239], the concentration for 50% growth inhibition (GI50) in the experiment on VCaP cells (Homo sapiens, VCaP, 72 h) is greater than 3000 nM; with T47D cells (Homo sapiens, T47D, 72 h), greater than 3000 nM; in experiment [1] (72 h) it was greater than 3000 nM; in experiment [2] (72 h), greater than 3000 nM.
In the case of `Cc1sc2c(c1C)C(c1ccc(CC[C@H]3C[C@@]4(CCCN(c5ncc(C(=O)N[C@H]6C(C)(C)[C@H](Oc7ccc(C#N)c(Cl)c7)C6(C)C)cn5)C4)C3)cc1)=N[C@@H](Cc1ncco1)c1nnc(C)n1-2` [Compound I-240], the GI50 in the experiment with VCaP cells (Homo sapiens, VCaP, 72 h) was greater than 3000 nM; in the experiment on T47D cells (Homo sapiens, T47D, 72 h), greater than 3000 nM; in experiment [1] (72 h) it was greater than 3000 nM; in experiment [2] (72 h), greater than 3000 nM.
Regarding `Cc1sc2c(c1C)C(c1ccc(CCN3CC[C@]4(C3)CN(c3ncc(C(=O)N[C@H]5C(C)(C)[C@H](Oc6ccc(C#N)c(Cl)c6)C5(C)C)cn3)CCO4)cc1)=N[C@@H](Cc1ncco1)c1nnc(C)n1-2` [Compound I-242], the GI50 is less than 500 nM in the experiment with VCaP cells (Homo sapiens, VCaP, 72 h); less than 500 nM in the experiment on T47D cells (Homo sapiens, T47D, 72 h); less than 500 nM in experiment [1] (72 h); less than 500 nM in experiment [2] (72 h).
Take `Cc1sc2c(c1C)C(c1ccc(CCN3CC[C@@]4(C3)CN(c3ncc(C(=O)N[C@H]5C(C)(C)[C@H](Oc6ccc(C#N)c(Cl)c6)C5(C)C)cn3)CCO4)cc1)=N[C@@H](Cc1ncco1)c1nnc(C)n1-2` [Compound I-243]: the GI50 is less than 500 nM in the experiment with VCaP cells (Homo sapiens, VCaP, 72 h); less than 500 nM in the experiment on T47D cells (Homo sapiens, T47D, 72 h); less than 500 nM in experiment [1] (72 h); less than 500 nM in experiment [2] (72 h).
As for `Cc1sc2c(c1C)C(c1ccc(C[C@H]3C[C@@]4(CN(c5ncc(C(=O)N[C@H]6C(C)(C)[C@H](Oc7ccc(C#N)c(Cl)c7)C6(C)C)cn5)CCO4)C3)cc1)=N[C@@H](Cc1ncco1)c1nnc(C)n1-2` [Compound I-244], the concentration for 50% growth inhibition (GI50) with VCaP cells (Homo sapiens, VCaP, 72 h) was greater than 3000 nM; with T47D cells (Homo sapiens, T47D, 72 h), greater than 3000 nM; in experiment [1] (72 h) it was less than 500 nM; in experiment [2] (72 h), greater than 3000 nM.
`Cc1sc2c(c1C)C(c1ccc(C[C@H]3C[C@]4(CN(c5ncc(C(=O)N[C@H]6C(C)(C)[C@H](Oc7ccc(C#N)c(Cl)c7)C6(C)C)cn5)CCO4)C3)cc1)=N[C@@H](Cc1ncco1)c1nnc(C)n1-2` [Compound I-245]: the GI50 in the experiment with VCaP cells (Homo sapiens, VCaP, 72 h) is less than 500 nM; with T47D cells (Homo sapiens, T47D, 72 h), less than 500 nM; in experiment [1] (72 h) it was less than 500 nM; in experiment [2] (72 h), less than 500 nM.
Consider `Cc1sc2c(c1C)C(c1ccc(CCCOC3CCN(c4ncc(C(=O)N[C@H]5C(C)(C)[C@H](Oc6ccc(C#N)c(Cl)c6)C5(C)C)cn4)CC3)cc1)=C[C@H](Cc1cccnc1)c1nnc(C)n1-2` [Compound I-246], for which the GI50 with VCaP cells (Homo sapiens, VCaP, 72 h) was less than 500 nM; in the experiment on T47D cells (Homo sapiens, T47D, 72 h), less than 500 nM; in experiment [1] (72 h) it was less than 500 nM; in experiment [2] (72 h), greater than 3000 nM.
As for `Cc1sc2c(c1C)C(c1ccc(C3CN(C4CCN(c5ncc(C(=O)N[C@H]6C(C)(C)[C@H](Oc7ccc(C#N)c(Cl)c7)C6(C)C)cn5)CC4)C3)cc1)=N[C@@H](Cc1ncco1)c1nnc(C)n1-2` [Compound I-247], the GI50 is less than 500 nM with VCaP cells (Homo sapiens, VCaP, 72 h); less than 500 nM in the experiment on T47D cells (Homo sapiens, T47D, 72 h); less than 500 nM in experiment [1] (72 h); less than 500 nM in experiment [2] (72 h).
With `Cc1sc2c(c1C)C(c1ccc(CC[C@H]3CC[C@@]4(CCCN(c5ncc(C(=O)N[C@H]6C(C)(C)[C@H](Oc7ccc(C#N)c(Cl)c7)C6(C)C)cn5)C4)C3)cc1)=N[C@@H](Cc1ncco1)c1nnc(C)n1-2` [Compound I-248], the GI50 in the experiment with VCaP cells (Homo sapiens, VCaP, 72 h) is greater than 3000 nM; with T47D cells (Homo sapiens, T47D, 72 h), greater than 3000 nM; in experiment [1] (72 h) it was greater than 3000 nM; in experiment [2] (72 h) it was greater than 3000 nM.
As for `Cc1sc2c(c1C)C(c1ccc(CC[C@@H]3CC[C@@]4(CCCN(c5ncc(C(=O)N[C@H]6C(C)(C)[C@H](Oc7ccc(C#N)c(Cl)c7)C6(C)C)cn5)C4)C3)cc1)=N[C@@H](Cc1ncco1)c1nnc(C)n1-2` [Compound I-249], the GI50 with VCaP cells (Homo sapiens, VCaP, 72 h) was greater than 3000 nM; in the experiment on T47D cells (Homo sapiens, T47D, 72 h), greater than 3000 nM; in experiment [1] (72 h) it was greater than 3000 nM; in experiment [2] (72 h) it was greater than 3000 nM.
Take `Cc1sc2c(c1C)C(c1ccc(CC[C@@H]3CC[C@]4(CCCN(c5ncc(C(=O)N[C@H]6C(C)(C)[C@H](Oc7ccc(C#N)c(Cl)c7)C6(C)C)cn5)C4)C3)cc1)=N[C@@H](Cc1ncco1)c1nnc(C)n1-2` [Compound I-250]: the GI50 in the experiment with VCaP cells (Homo sapiens, VCaP, 72 h) is less than 500 nM; with T47D cells (Homo sapiens, T47D, 72 h), less than 500 nM; in experiment [1] (72 h), less than 500 nM; in experiment [2] (72 h), greater than 3000 nM.
Turning to `Cc1sc2c(c1C)C(c1ccc(CC[C@H]3CC[C@]4(CCCN(c5ncc(C(=O)N[C@H]6C(C)(C)[C@H](Oc7ccc(C#N)c(Cl)c7)C6(C)C)cn5)C4)C3)cc1)=N[C@H](Cc1ncco1)c1nnc(C)n1-2` [Compound I-251], the GI50 is less than 500 nM in the experiment with VCaP cells (Homo sapiens, VCaP, 72 h); less than 500 nM in the experiment on T47D cells (Homo sapiens, T47D, 72 h); less than 500 nM in experiment [1] (72 h); greater than 3000 nM in experiment [2] (72 h).
As to `Cc1sc2c(c1C)C(c1ccc(CC[C@@H]3CC[C@@]4(CCCN(c5ncc(C(=O)N[C@H]6C(C)(C)[C@H](Oc7ccc(C#N)c(Cl)c7)C6(C)C)cn5)C4)C3)cc1)=N[C@H](Cc1ncco1)c1nnc(C)n1-2` [Compound I-252], the GI50 in the experiment on VCaP cells (Homo sapiens, VCaP, 72 h) was greater than 3000 nM; with T47D cells (Homo sapiens, T47D, 72 h), less than 500 nM; in experiment [1] (72 h), less than 500 nM; in experiment [2] (72 h) it was greater than 3000 nM.
